From the supplement of paper PMC10307832

Tests used:
Experiment in all cases: relative viability (nuclei count vs DMSO), 5 days (fraction); higher = more cells survive
[1] = compound: COC1=CC=C(C=C1)CN2C=CC3=C2C=C(C=C3)C(=O)NO + NC(=O)Nc1cc(-c2cccc(F)c2)sc1C(=O)N[C@H]1CCCNC1 [AZD7762] (partner 0.2 µM)
In short: (§1)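 One day after seeding in 1536-well plates, lung cancer cell lines were dosed by pin tool. Dosing was either single-drug or a fixed anchor-drug dose plus five library-drug doses (not always all listed) in √10 steps. After 5 days, nuclei were stained in one fix-and-stain step and counted on 4× images, and relative viability is the nuclei count of treated wells over that of vehicle wells, given as the median of duplicate plates.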

[2] = compound: COC1=CC=C(C=C1)CN2C=CC3=C2C=C(C=C3)C(=O)NO + CC(=O)c1c(C)c2cnc(Nc3ccc(N4CCNCC4)cn3)nc2n(C2CCCC2)c1=O [Palbociclib] (partner 0.5 µM)
In short: as §1

Veliparib + Decitabine = compound: C[C@]1(c2nc3c(C(N)=O)cccc3[nH]2)CCCN1 [Veliparib] + Nc1ncn([C@H]2C[C@H](O)[C@@H](CO)O2)c(=O)n1 [Decitabine] (partner 2 µM)
In short: as §1

Veliparib + Crizotinib = compound: C[C@]1(c2nc3c(C(N)=O)cccc3[nH]2)CCCN1 [Veliparib] + C[C@@H](Oc1cc(-c2cnn(C3CCNCC3)c2)cnc1N)c1c(Cl)ccc(F)c1Cl [Crizotinib] (partner 1 µM)
In short: as §1

Cell Line	relative viability ([1]; first compound 0.08 µM)	relative viability ([1]; first compound 0.253 µM)	relative viability ([1]; first compound 0.8 µM)	relative viability ([1]; first compound 2.53 µM)	relative viability ([1]; first compound 8 µM)	relative viability ([2]; first compound 0.08 µM)	relative viability ([2]; first compound 0.253 µM)	relative viability ([2]; first compound 0.8 µM)	relative viability ([2]; first compound 2.53 µM)	relative viability ([2]; first compound 8 µM)	relative viability (Veliparib + Decitabine; first compound 0.02 µM)	relative viability (Veliparib + Decitabine; first compound 0.06325 µM)	relative viability (Veliparib + Decitabine; first compound 0.2 µM)	relative viability (Veliparib + Decitabine; first compound 0.6325 µM)	relative viability (Veliparib + Decitabine; first compound 2 µM)	relative viability (Veliparib + Crizotinib; first compound 0.02 µM)	relative viability (Veliparib + Crizotinib; first compound 0.06325 µM)	relative viability (Veliparib + Crizotinib; first compound 0.2 µM)	relative viability (Veliparib + Crizotinib; first compound 0.6325 µM)	relative viability (Veliparib + Crizotinib; first compound 2 µM)
RERF-LC-KJ	0.888	0.773	0.918	0.948	0.967	1.05	1.1	1.07	1.09	1.05	0.658	0.631	0.607	0.72	0.674	0.893	0.751	0.847	0.784	0.783
NCI-H1734		0.612	0.559	0.567	0.481		0.367	0.387	0.341	0.34		0.374	0.389	0.33	0.35	0.701	0.641	0.728	0.623	0.682
HCC-827	0.228	0.259	0.159	0.218	0.196	0.448	0.481	0.442	0.504	0.442	0.298	0.303	0.292	0.241	0.3	0.913	0.919	0.947	0.921	0.905
NCI-H1792	0.755	0.792	0.716	0.592	0.55	0.616	0.726	0.626	0.634	0.637	0.463	0.381	0.397	0.263	0.26	0.98	0.919	0.942	0.93	0.939
NCI-H2126	1	1.03	0.992	1.09	0.962	0.34	0.339	0.368	0.361	0.376	0.575	0.561	0.538	0.545	0.559	0.966	1.02	0.988	0.988	0.933
EPLC-272H		0.253	0.196	0.229	0.185		0.325	0.314	0.311	0.319		0.312	0.387	0.331	0.393		0.798	0.855	0.941	0.904
HCC-366	0.239	0.265	0.302	0.235	0.203	0.339	0.372	0.38	0.367	0.389	0.332	0.225	0.195	0.189	0.182	0.592	0.38	0.543	0.401	0.419
EKVX		0.637	0.699	0.803	0.712		0.408	0.387	0.384	0.351		0.319	0.364	0.338	0.294	0.65	0.744	1.04	0.977	0.913
201T	0.561	0.676	0.528	0.642	0.586	0.338	0.368	0.371	0.358	0.365	0.886	0.844	0.795	0.795	0.785	1.03	0.978	0.964	0.992	0.997
LC-2-ad	0.905	0.874	0.865	0.898	0.835	0.446	0.532	0.506	0.484	0.47	0.775	0.801	0.706	0.673	0.763	0.458	0.396	0.483	0.46	0.443
HCC-78	0.575	1.21	0.589	0.512	0.496	0.437	0.473	0.45	0.496	0.452	0.637	0.589	0.603	0.517	0.491	0.342	0.3	0.409	0.383	0.352
ChaGo-K-1		0.861	0.881	0.766	0.762		0.914	0.928	0.904	0.874	0.446	0.453	0.411	0.439	0.422		1.05	1.08	1.06	1.09
NCI-H441	1.08	1.3	1.19	1.2	0.887	0.23	0.235	0.238	0.231	0.185	0.227	0.216	0.179	0.212	0.228	0.663	0.645	0.745	0.593	0.63
NCI-H650	0.944	0.686	0.816	1.1	0.763	0.328	0.381	0.353	0.319	0.32	0.309	0.283	0.265	0.278	0.317	0.696	0.72	0.708	0.665	0.572
NCI-H2170	0.859	0.797	0.849	0.826	0.711	0.374	0.374	0.412	0.361	0.367	0.405	0.436	0.378	0.389	0.381	1.23	1.24	1.21	1.14	1.14
ABC-1		0.692	0.871	0.796	0.756		0.768	0.713	0.77	0.615			0.82	1.07	1.06		0.987	0.846	0.953	0.962
A-427	0.544		0.671	0.696	0.476	0.291		0.538	0.494	0.501	0.557	0.473	0.593	0.492	0.546	0.884	0.837	0.864	0.83	0.836

Cell Line	relative viability ([1]; first compound 0.08 µM)	relative viability ([1]; first compound 0.253 µM)	relative viability ([1]; first compound 0.8 µM)	relative viability ([1]; first compound 2.53 µM)	relative viability ([1]; first compound 8 µM)	relative viability ([2]; first compound 0.08 µM)	relative viability ([2]; first compound 0.253 µM)	relative viability ([2]; first compound 0.8 µM)	relative viability ([2]; first compound 2.53 µM)	relative viability ([2]; first compound 8 µM)	relative viability (Veliparib + Decitabine; first compound 0.02 µM)	relative viability (Veliparib + Decitabine; first compound 0.06325 µM)	relative viability (Veliparib + Decitabine; first compound 0.2 µM)	relative viability (Veliparib + Decitabine; first compound 0.6325 µM)	relative viability (Veliparib + Decitabine; first compound 2 µM)	relative viability (Veliparib + Crizotinib; first compound 0.02 µM)	relative viability (Veliparib + Crizotinib; first compound 0.06325 µM)	relative viability (Veliparib + Crizotinib; first compound 0.2 µM)	relative viability (Veliparib + Crizotinib; first compound 0.6325 µM)	relative viability (Veliparib + Crizotinib; first compound 2 µM)
HARA		0.588	0.397	0.251	0.202	0.153	0.218	0.243	0.3	0.238	0.565		0.47	0.499	0.311	1.03	0.996	0.954	0.848	1.06
NCI-H1944		0.516	0.481	0.475	0.428		0.36	0.315	0.338	0.308	0.408	0.398	0.353	0.41	0.407	0.995	1.04	0.951	0.965	0.976
HCC-44	0.938	1.01	0.99	1.01	1.04	0.936	0.926	1.01	0.978	0.969	0.941	0.797	0.907	0.857	0.902	0.834	0.708	0.85	0.74	0.835
NCI-H1915	0.494	0.712	0.676	0.705	0.606	0.506	0.545	0.518	0.505	0.559	0.23	0.243	0.267	0.242	0.266	0.866	0.869	0.803	0.754	0.771
NCI-H1666	0.799	0.872	0.782	0.784	0.765	0.642	0.661	0.694	0.679	0.625	0.716	0.596	0.764	0.645	0.701	0.94	0.826	1.03	0.995	1.07
NCI-H3122	0.977	1.02	1.04	0.999	0.819	0.196	0.173	0.204	0.167	0.194	0.393	0.386	0.361	0.326	0.395	0.247	0.297	0.26	0.268	0.304
PC-14	0.263	0.276	0.393	0.315	0.381	0.533	0.599	0.567	0.509	0.535	0.155	0.141	0.135	0.12	0.109	0.896	0.898	0.781	0.766	0.766
NCI-H2087	1.31	1.24	1.5	1.17	1.25	0.261	0.226	0.259	0.28	0.164	0.255	0.244	0.237	0.2	0.174	0.729	0.722	0.831	0.806	0.61
LCLC-103H	0.764	0.851	0.809	0.851	0.679	0.435	0.439	0.481	0.466	0.515	0.809	0.662	0.667	0.705	0.714	1.1	0.982	1.02	0.875	1.09
PC-3 [JPC-3]	0.799		0.965	0.869	0.652	0.562		0.559	0.55	0.535	0.766		0.85	0.763	0.741	0.996	0.961	0.914	0.96	0.985
LOU-NH91		0.749	0.756	0.748	0.705		0.537	0.548	0.574	0.529	0.847	0.785	0.792	0.782	0.837	0.729	0.719	0.745	0.688	0.774
NCI-H838	0.694	0.981	0.949	0.967	0.909	0.214	0.237	0.226	0.228	0.18	0.409	0.453	0.408	0.32	0.426	0.859	0.9	0.851	0.83	0.895
NCI-H23	0.257	0.312	0.32	0.271	0.154	0.393	0.611	0.556	0.496	0.461	0.318	0.289	0.306	0.296	0.334	0.52	0.521	0.606	0.596	0.625
NCI-H1993	0.746	0.745	0.857	0.8	0.85	0.586	1.12	0.749	0.714	0.593		0.526	0.614	0.541	0.567	0.836	0.822	0.815	0.787	0.771
NCI-H1437	1.02	1.13	1.03	1.13	1.1	0.283	0.295	0.344	0.366	0.326	0.606	0.526	0.464	0.533	0.497	0.902	0.929	0.9	0.81	0.834
LU99A		0.392	0.384	0.276	0.208		0.406	0.424	0.416	0.352	1.01	0.875	0.932	0.825	0.866	0.604	0.527	0.46	0.44	0.625
NCI-H1755	0.395	0.439	0.497	0.516	0.35	0.464	0.48	0.5	0.448	0.423	0.675	0.709	0.629	0.595	0.707	0.84	0.853	0.794	0.832	0.805
